Results published in a melting point compilation (Tetko et al.; mined from patent text by program, amines drawn as free bases though some values may be those of a salt).

Compound	melting point [°C]
Clc1cc(COCc2cc(Cl)nc(Cl)c2)cc(Cl)n1	69.1
COc1cc(OC)nc(Sc2[nH]nc(C)c2[N+](=O)[O-])n1	175 to 176
OCC1OC(n2cnc3c(NCCC(c4ccccc4)c4ccccc4)ncnc32)C(O)C1O (centres undefined)	103 to 118
COC(=O)N1CCC(=NO)c2cc(Cl)ccc21	162 to 163
CC(C)OCCCNC(=O)C(C)(C(C)C)C(C)C	32
O=C(C=Cc1ccc(O)cc1)NCCO	149 to 151
CC(C)(C)c1ccc(C(=O)Nc2cn3nc(-n4cnc(Cl)c4Cl)ccc3n2)cc1	281 to 282
CCOP(=O)(CCCOc1ccc2c(c1)c(CC(N)=O)c(C)n2Cc1ccccc1)OCC	106 to 111
O=C(O)CCOc1cccc2c1Cc1sc(SCCC(c3ccccc3)c3ccccc3)nc1-2	113 to 114
CC(C)NC(=O)CN1CCN(c2nnc(N)[nH]2)CC1	225 to 226
Nc1cc(N)cc(O)c1	168 to 170
CCNC(=O)n1nc(Oc2c(Cl)cc(C(F)(F)F)cc2Cl)cc1C(=O)OC	88 to 90
CC(C)(C)c1csc(-c2cc3cc(C=O)ccc3o2)n1	83 to 84
CCC(COc1cccc(COc2cccc3cccnc23)c1)OC(C)=O (centres undefined)	77 to 79
COc1ccccc1N1CCN(CCCCNc2cc(Cl)nnc2OC)CC1	139 to 150
O=C1c2c(-c3ccccc3)cc(CO)nc2OCCN1Cc1cc(C(F)(F)F)cc(C(F)(F)F)c1	199 to 201
FC(F)(F)CNC(=S)Nc1cncc(Cl)n1	170 to 172
Cc1cccc2nc(-c3cc(C(F)F)nn3-c3ccc(S(N)(=O)=O)cc3)sc12	264 to 265
CC(C)(CCC#N)c1ccc(C(=O)Nc2cn3cc(-n4ccnc4)ccc3n2)cc1	233 to 234
Fc1ccc(F)c(CC2CCN([C@H]3CC[C@H](c4ccc5c(c4)OCO5)CC3)CC2)c1	96 to 97
CCN(CCO)CCCNc1ncc2cc(-c3c(Cl)cccc3Cl)c(N)nc2n1	201 to 204
Cn1nnnc1CC(=O)c1cc(F)c(Cl)cc1N	180 to 184
Cc1ccc(S(=O)(=O)N(CCO)c2cc(C)cc([N+](=O)[O-])c2N)cc1	201
COC(=O)C1=C(C)NC(C)=C(C(=O)OCCN2CCC(C(c3ccccc3)c3ccccc3)CC2)C1c1cccc([N+](=O)[O-])c1 (centres undefined)	82 to 85
Cc1ccc2c(c1)c1cc(C(=O)N3CCOCC3)sc1n2C	158 to 160

Compound	melting point [°C]
CC(C)N(CCOc1ccc(CC2SC(=O)NC2=O)cc1)c1nc2ccccc2o1 (centres undefined)	66
CC1=CC(N)(C(=O)NCCC(C)n2ccnc2)CC=C1 (centres undefined)	128 to 130
CN(C)c1ccc(-c2n[nH]c3c2c(=O)n(-c2ccccc2)c2ncccc32)cc1	> 300
CCCN(C(=O)OCC(C)C)C1Cc2ccc(C3=NNC(=O)CC3)cc2C1 (centres undefined)	161 to 162
CC(C)CCC1(c2ccccc2)CC=CC(=O)O1 (centres undefined)	134 to 136
Cc1cc2c(cc1C#Cc1ccc(C(=O)O)cc1)C(C)(C)CCC2	203 to 206
Clc1ccc(CC[C@H]2CN(Cc3ccccc3)CCN2Cc2ccccc2)cc1	87 to 90
Fc1cc2c(cc1F)C(n1cc[nH]c1=S)CC2 (centres undefined)	183 to 187
CS(=O)c1ccccc1CN1CCC(=O)C(C(c2ccc(F)cc2)c2ccc(F)cc2)C1 (centres undefined)	187 to 189
Cc1cc(C)c(Cc2nc(C)nc(O)c2C)c(C)c1	260 to 262
Cn1cc(C2CCC3(CC2)OCCO3)c2cc(C#N)ccc21	170 to 172
O=C1CCC(N2C(=O)c3cccc(Nc4ccccc4)c3C2=O)C(=O)N1 (centres undefined)	214 to 216
CC1=C(C(=O)O)C(c2ccc(F)c(Br)c2)C2=C(CCC2=O)N1 (centres undefined)	211 to 214
CC(O)c1cc(C(F)(F)F)cc(S(N)(=O)=O)c1 (centres undefined)	169 to 170
COc1ccc(-c2c3cccc(C(F)(F)F)c3nn2C2CCC2)c(OC)c1	51 to 52
CCOC(=O)c1cc2c(nc(C)n2C)c2c1CCC(OC)(c1ccccc1)O2 (centres undefined)	176 to 178
CN(c1cc(OC(F)(F)F)cc2cc(C(N)=O)[nH]c12)S(=O)(=O)c1cccs1	228 to 229
O=c1cc(-c2ccc(Cl)cc2)sc(N2CCOCC2)c1	202 to 204
CCCCS(=O)(=O)Nc1nc(CN2CCN(C(c3ccccc3)c3ccccc3)CC2)cs1	185 to 187
C=CCn1c(=O)c2cccnc2n(-c2cccc([N+](=O)[O-])c2)c1=O	188 to 189
O=C(NCc1ccc(Cl)cc1)c1cnc2c(F)cc(-c3cccs3)cc2c1O	298 to 301
CCOC(=O)C1=C(C)NC(C(OCC)OCC)=C(C(=O)OCC)C1c1ccccc1OC (centres undefined)	105 to 107
COc1ccc2c(c1)CCc1cnc(N(C)c3cc(OC)c(OC)c(OC)c3)nc1-2	199 to 201
COc1ccc2c3c1OC1C(=O)C(C)CC4(OC)C(C2)N(C)CCC314 (centres undefined)	215 to 221
O=S(=O)(CCNc1ccc(Cl)c(C(F)(F)F)c1)NCCCOc1cccc(CN2CCCCC2)c1	115 to 120

Compound	melting point [°C]
CC(=O)N1CCN(c2cc3c(c(C)c2F)c(=O)c(C(=O)O)cn3C2CC2)CC1	261 to 263
O=C(O)C1=Cc2cccc(Cl)c2OC1C(F)(F)F (centres undefined)	224 to 226
COc1cc(C=NN(C)C)c([N+](=O)[O-])cc1OC	143 to 145
COc1ccc(C(=O)NCCc2cccc(C)c2)cc1OC	108 to 109
CCOC(=O)N1CCC(Nc2nc3ccccc3[nH]2)CC1	231 to 233
CCCOC(C)c1ccc2[nH]c3cnc(C(=O)OCC)c(COC)c3c2c1 (centres undefined)	189 to 190
Cn1c(C(F)(F)F)c(Cl)c(=O)n(-c2ccc(Cl)c3nc(C(C)(C)C)oc23)c1=O	83 to 86
O=C(O)C1=Cc2cc(-c3ccccc3)ccc2CC1	208 to 209
CC(CC#N)Nc1cc(Oc2ccc(S(=O)(=O)C(C)C)cc2Cl)ccc1[N+](=O)[O-] (centres undefined)	132
COC(=O)C1=C(C)NC(C)=C(C(=O)OCCN2CCN(C(c3ccccc3)c3ccccc3)CC2)C1c1cccc(Cl)c1 (centres undefined)	74 to 80
CC(=O)COc1c([N+](=O)[O-])ccc(F)c1C(C)=O	64 to 65
CC(C)(C)c1ccc2c(c1)C(CO)c1cc(C(C)(C)C)ccc1-2	102 to 103
COC1=C(OC)C(=O)C(CCC(=O)N[C@@H](Cc2ccc(O)cc2)C(=O)O)=C(C)C1=O	170
N#CC1=C(c2cccs2)Nc2n[nH]cc2C1c1cccc2ccccc12 (centres undefined)	214
CC(C)S(=O)(=O)c1ccc(S(=O)(=O)C(C)C)nc1	181
Cc1cccc(C)c1N1C(=O)CS/C1=N\C(=O)Nc1ccc(-c2ncn(-c3ccc(OC(F)(F)F)cc3)n2)cc1	190 to 196
Cc1cc(=O)n(O)c(C)c1Cc1ccccc1	165
CCOC(=O)c1ncc2[nH]c3ccccc3c2c1CCOC	181 to 183
O=C(Nc1c(Cl)cccc1Cl)C1CC1	166 to 169
CCC(C(=O)C(C)C(O)C(C)CCc1c(N)cc(C)c(O)c1C(=O)O)C1OC(CC)(C2CCC(O)(CC)C(C)O2)CC1C (centres undefined)	223 to 225
O=C(NCCO)OCc1ccccc1	55 to 57
CC(C)(C)OC(=O)N1CCn2c(Br)c(-c3cccc(F)c3)c(C(=O)n3ccnc3)c2C1	168 to 169
Cn1cccc(C(=O)Nc2ccc3c(c2)NC(=O)/C3=C\c2ccc[nH]2)c1=O	> 300
Cc1ccc2nc(-c3ccc(N)c(I)c3)sc2c1	176 to 178
CC(C)NC(=O)NOCc1nc2c(N)nc3ccccc3c2n1CC(C)(C)O	231 to 233

Compound	melting point [°C]
CCSCCNC(=O)Nc1ccccc1CCc1cc(C(C)(C)C)c(O)c(C(C)(C)C)c1	131 to 132
CN(CC(=O)Nc1ccccc1N)C(=O)OC(C)(C)C	134 to 136
O=C1c2cccc(NCCc3ccc(O)cc3)c2C(=O)c2c(NCCc3ccc(O)cc3)cccc21	181 to 182
CC(C)C1C(=O)Nc2ccc(OCC3CO3)cc21 (centres undefined)	122 to 125
CCCCCCCCOc1ccc(C(=O)Nc2cccc(Cl)c2Cl)cc1	104 to 106
NC(=S)C(c1ccccc1)c1cccnn1 (centres undefined)	161 to 163
C[C@H](C(=O)OCc1ccccc1)n1ccn(-c2ccc(OCC(F)(F)C(F)F)cc2)c1=O	75 to 76
CC1CC(=O)NN=C1c1ccc(N=Cc2ccccc2O)cc1 (centres undefined)	207 to 209
CCc1cncnc1Nc1ccc(C(=O)CCC2CCN(Cc3ccccc3)CC2)cc1	136 to 138
O=C(CCCCC(=O)Oc1cccc(O)c1O)Oc1cccc(O)c1O	110 to 111
O=C(OCCCl)c1ccccc1CS(=O)(=O)Cl	66 to 67
C[Si](C)(C)CCOCn1c(Br)nc(C#N)c1C#N	47 to 52
CC1(C)CCC(C)(C)c2cc(C(O)C#Cc3ccc(C(=O)O)c(O)c3)ccc21 (centres undefined)	203 to 204
O=C(Nc1nc2ccc(C(F)(F)F)cc2s1)c1c(F)cccc1F	256 to 257
COc1cc(OCC(=O)O)c(C)cc1SCc1ccc(-c2ccccc2)cc1	60 to 62
NC(=S)Nc1cnccn1	234 to 235
Cc1ccc(CC(O)(P(=O)(O)O)P(=O)(O)O)cc1	211 to 213
COC(=O)c1ccc(OC)c(Nc2cc(Cl)cc(Cl)c2)c1	134 to 135
CC(=O)OCC1OC(n2cc(C3=C(c4cn(C(=O)OC(C)(C)C)c5ccccc45)C(=O)N(C)C3=O)c3cccnc32)C(OC(C)=O)C(OC(C)=O)C1OC(C)=O (centres undefined)	89 to 91
CN1CCOc2cc(O)c(C3(O)C(=O)N(Cc4ccc(C(F)(F)F)o4)c4ccccc43)cc21 (centres undefined)	184 to 186
CC(C)(C)C1=NN(c2ccc(C(=O)O)cc2)C(c2ccc(Br)cc2)C1 (centres undefined)	222
O=[N+]([O-])c1ccc(N2CCN(CC(O)(Cn3cncn3)c3ccc(Cl)cc3Cl)CC2)cc1 (centres undefined)	168
Nc1ccc(/C=C/c2ccccc2)cc1	151
Cc1nc(C)n(-c2cc([C@@H]3C[C@H]3c3nc4ccccc4n3C)nc(N)n2)n1 (relative stereo)	120 to 122
